Reference: patent publication US10239883B2, “4-imidazopyridazin-1-yl-benzamides as BTK inhibitors” (Merck Sharp & Dohme B.V., priority 2011, dated 2019)

target: Lck enzyme (Homo sapiens (Human), UniProt P06239); assay: Lck enzyme activity, IMAP fluorescence polarization assay; conditions: 60 min pre-incubation, 6 μM ATP, bin bound in μM
Sequence (P06239 whole entry): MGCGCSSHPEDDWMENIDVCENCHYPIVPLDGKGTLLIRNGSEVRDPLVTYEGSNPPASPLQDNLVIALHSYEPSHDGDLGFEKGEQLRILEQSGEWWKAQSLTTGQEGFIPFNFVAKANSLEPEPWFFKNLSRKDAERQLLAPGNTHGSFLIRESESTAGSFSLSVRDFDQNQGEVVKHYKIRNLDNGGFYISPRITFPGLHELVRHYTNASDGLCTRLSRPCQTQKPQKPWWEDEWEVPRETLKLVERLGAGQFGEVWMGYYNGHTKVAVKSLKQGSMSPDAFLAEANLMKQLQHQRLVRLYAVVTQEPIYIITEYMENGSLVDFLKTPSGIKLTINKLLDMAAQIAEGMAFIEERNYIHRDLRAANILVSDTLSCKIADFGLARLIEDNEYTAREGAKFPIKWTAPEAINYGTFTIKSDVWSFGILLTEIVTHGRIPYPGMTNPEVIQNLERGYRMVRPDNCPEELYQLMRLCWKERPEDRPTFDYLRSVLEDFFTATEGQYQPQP

Row | EC50 Lck activity values | Compound
1 | <1 µM | CCCc1ccnc(NC(=O)c2ccc(-c3nc([C@H](C)N(C)C(=O)/C=C/CN(C)C)n4ccnc(N)c34)cc2)c1 [Example 76, (S,E)-4-(8-amino-3-(1-(4-(dimethylamino)-N-methylbut-2-enamido)ethyl)imidazo[1,5-a]pyrazin-1-yl)-N-(4-propylpyridin-2-yl)benzamide]

target: Btk enzyme (His-Btk) (Homo sapiens (Human), UniProt Q06187); assay: Btk enzyme activity, IMAP fluorescence polarization assay; conditions: 60 min pre-incubation, 5 μM ATP, bin bound in nM
Sequence (Q06187 whole entry): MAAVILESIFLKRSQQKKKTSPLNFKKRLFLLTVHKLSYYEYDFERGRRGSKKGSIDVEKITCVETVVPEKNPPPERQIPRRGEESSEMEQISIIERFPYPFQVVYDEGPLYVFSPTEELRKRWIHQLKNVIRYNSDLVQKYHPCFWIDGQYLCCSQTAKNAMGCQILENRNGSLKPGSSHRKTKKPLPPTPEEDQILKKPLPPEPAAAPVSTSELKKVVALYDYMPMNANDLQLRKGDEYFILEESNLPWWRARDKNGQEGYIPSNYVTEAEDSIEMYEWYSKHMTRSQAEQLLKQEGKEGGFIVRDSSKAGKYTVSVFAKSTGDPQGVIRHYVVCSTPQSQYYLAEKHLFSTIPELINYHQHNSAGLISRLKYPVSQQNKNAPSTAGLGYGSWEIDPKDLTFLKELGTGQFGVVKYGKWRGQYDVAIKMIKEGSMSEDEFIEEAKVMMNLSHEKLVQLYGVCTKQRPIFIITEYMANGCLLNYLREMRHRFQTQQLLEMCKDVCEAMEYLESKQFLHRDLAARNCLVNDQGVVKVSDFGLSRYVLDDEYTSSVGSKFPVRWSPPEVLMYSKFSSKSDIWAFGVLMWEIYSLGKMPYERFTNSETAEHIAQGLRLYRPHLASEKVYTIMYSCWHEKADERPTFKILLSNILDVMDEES

Row | EC50 Btk activity values | Compound
2 | <100 nM | CC#CC(=O)NCc1nc(-c2ccc(C(=O)Nc3ccccn3)cc2)c2c(N)nccn12 [Example 112, 4-(8-amino-3-(but-2-ynamidomethyl)imidazo[1,5-a]pyrazin-1-yl)-N-(pyridin-2-yl)benzamide]
3 | <100 nM | CC#CC(=O)N(C)[C@@H](C)c1nc(-c2ccc(C(=O)Nc3cc(CCC)ccn3)cc2)c2c(N)nccn12 [Example 113, (S)-4-(8-amino-3-(1-(N-methylbut-2-ynamido)ethyl)imidazo[1,5-a]pyrazin-1-yl)-N-(4-propylpyridin-2-yl)benzamide]
4 | <100 nM | COC/C=C/C(=O)N1CCC[C@H]1c1nc(-c2ccc(C(=O)Nc3ccccn3)c(OC)c2)c2c(N)nccn12 [Example 103, (S,E)-4-(8-amino-3-(1-(4-methoxybut-2-enoyl)pyrrolidin-2-yl)imidazo[1,5-a]pyrazin-1-yl)-2-methoxy-N-(pyridin-2-yl)benzamide]
5 | <100 nM | CCCc1ccnc(NC(=O)c2ccc(-c3nc([C@@H]4CCCCN4C(=O)/C=C/COC)n4ccnc(N)c34)cc2F)c1 [Example 114, (S,E)-4-(8-amino-3-(1-(4-methoxybut-2-enoyl)piperidin-2-yl)imidazo[1,5-a]pyrazin-1-yl)-2-fluoro-N-(4-propylpyridin-2-yl)benzamide]
6 | <100 nM | COc1cc(-c2nc([C@@H]3CCCN3C(=O)c3ccnc(Cl)n3)n3ccnc(N)c23)ccc1C(=O)Nc1ccccn1 [Example 83, (S)-4-(8-amino-3-(1-(2-chloropyrimidine-4-carbonyl)pyrrolidin-2-yl)imidazo[1,5-a]pyrazin-1-yl)-2-methoxy-N-(pyridin-2-yl)benzamide]
7 | <100 nM | CC#CC(=O)N1CCCC[C@H]1c1nc(-c2ccc(C(=O)Nc3nccc(C)n3)cc2)c2c(N)nccn12 [Example 89, (S)-4-(8-amino-3-(1-but-2-ynoylpiperidin-2-yl)imidazo[1,5-a]pyrazin-1-yl)-N-(4-methylpyrimidin-2-yl)benzamide]
8 | <100 nM | COC/C=C/C(=O)NCc1nc(-c2ccc(C(=O)Nc3ccccn3)cc2)c2c(N)nccn12 [Example 95, (E)-4-(8-amino-3-((4-methoxybut-2-enamido)methyl)imidazo[1,5-a]pyrazin-1-yl)-N-(pyridin-2-yl)benzamide]

More lines, now with the values behind:

Row | Compound | EC50 Btk activity values
9 | Cc1cc(C(=O)Nc2ccccn2)ccc1-c1nc([C@@H]2CCCCN2C(=O)c2ccnc(Cl)n2)n2ccnc(N)c12 [Example 56, 4-(8-amino-3-((S)-1-(2-chloropyrimidine-4-carbonyl)piperidin-2-yl)imidazo[1,5-a]pyrazin-1-yl)-3-methyl-N-(pyridin-2-yl)benzamide] | <100 nM
10 | CN(C)C/C=C/C(=O)N1CCC[C@H]1c1nc(-c2ccc(C(=O)Nc3cc(F)ccn3)cc2)c2c(N)nccn12 [Example 7, (S,E)-4-(8-Amino-3-(1-(4-(dimethylamino)but-2-enoyl)pyrrolidin-2-yl)imidazo[1,5-a]pyrazin-1-yl)-N-(4-fluoropyridin-2-yl)benzamide] | <100 nM
11 | COC/C=C/C(=O)N1CCC[C@H]1c1nc(-c2ccc(C(=O)Nc3cc(C(C)C)ccn3)cc2)c2c(N)nccn12 [Example 58, (S,E)-4-(8-amino-3-(1-(4-methoxybut-2-enoyl)pyrrolidin-2-yl)imidazo[1,5-a]pyrazin-1-yl)-N-(4-isopropylpyridin-2-yl)benzamide] | <100 nM
12 | CC#CC(=O)N1CCCC[C@H]1c1nc(-c2ccc(C(=O)Nc3ccon3)cc2)c2c(N)nccn12 [Example 24, (S)-4-(8-Amino-3-(1-but-2-ynoylpiperidin-2-yl)imidazo[1,5-a]pyrazin-1-yl)-N-(isoxazol-3-yl)benzamide] | <100 nM
13 | CC(C)c1ccnc(NC(=O)c2ccc(-c3nc([C@@H]4CCCN4C(=O)c4ccnc(Cl)n4)n4ccnc(N)c34)cc2)c1 [Example 70, (S)-4-(8-amino-3-(1-(2-chloropyrimidine-4-carbonyl)pyrrolidin-2-yl)imidazo[1,5-a]pyrazin-1-yl)-N-(4-isopropylpyridin-2-yl)benzamide] | <100 nM
14 | Nc1nccn2c([C@@H]3CCCN3C(=O)c3ccnc(Cl)n3)nc(-c3ccc(C(=O)Nc4ccccn4)cc3)c12 [Example 5, (S)-4-(8-amino-3-(1-(2-chloropyrimidine-4-carbonyl)pyrrolidin-2-yl)imidazo[1,5-a]pyrazin-1-yl)-N-(pyridin-2-yl)benzamide] | <100 nM
15 | CCc1ccnc(NC(=O)c2ccc(-c3nc([C@@H]4CCCN4C(=O)/C=C/COC)n4ccnc(N)c34)cc2)c1 [Example 11, (S,E)-4-(8-Amino-3-(1-(4-methoxybut-2-enoyl)pyrrolidin-2-yl)imidazo[1,5-a]pyrazin-1-yl)-N-(4-ethylpyridin-2-yl)benzamide] | <100 nM
16 | CN(C)C/C=C/C(=O)N1CCCC[C@H]1c1nc(-c2ccc(C(=O)Nc3cccnn3)cc2)c2c(N)nccn12 [Example 73, (S,E)-4-(8-amino-3-(1-(4-(dimethylamino)but-2-enoyl)piperidin-2-yl)imidazo[1,5-a]pyrazin-1-yl)-N-(pyridazin-3-yl)benzamide] | <100 nM

same assay, conditions: 60 min pre-incubation, 5 μM ATP, bin bound in μM

Row | EC50 Btk activity values | Compound
17 | <1000 nM | C=C(C(=O)N1CCC[C@H]1c1nc(-c2ccc(C(=O)Nc3ccccn3)cc2)c2c(N)nccn12)C(F)(F)F [Example 92, (S)-4-(8-amino-3-(1-(2-(trifluoromethyl)acryloyl)pyrrolidin-2-yl)imidazo[1,5-a]pyrazin-1-yl)-N-(pyridin-2-yl)benzamide]
18 | <1000 nM | CCCc1ccnc(NC(=O)c2ccc(-c3nc([C@@H]4CCCN4C(=O)/C=C/COC)n4ccnc(N)c34)c(C)c2)c1 [Example 87, 4-(8-amino-3-((S)-1-((E)-4-methoxybut-2-enoyl)pyrrolidin-2-yl)imidazo[1,5-a]pyrazin-1-yl)-3-methyl-N-(4-propylpyridin-2-yl)benzamide]
19 | <1000 nM | Nc1nccn2c([C@@H]3CCCCN3C(=O)c3ccnc(Cl)n3)nc(-c3ccc(C(=O)Nc4cccnn4)cc3)c12 [Example 74, (S)-4-(8-amino-3-(1-(2-chloropyrimidine-4-carbonyl)piperidin-2-yl)imidazo[1,5-a]pyrazin-1-yl)-N-(pyridazin-3-yl)benzamide]

The next lines start with the molecule.

Row | Compound | EC50 Btk activity values
20 | COC/C=C/C(=O)N1CCCC[C@H]1c1nc(-c2ccc(C(=O)Nc3ccon3)cc2)c2c(N)nccn12 [Example 54, (S,E)-4-(8-amino-3-(1-(4-methoxybut-2-enoyl)piperidin-2-yl)imidazo[1,5-a]pyrazin-1-yl)-N-(isoxazol-3-yl)benzamide] | <1000 nM
21 | COC/C=C/C(=O)N1CCCC[C@H]1c1nc(-c2ccc(C(=O)Nc3cccnn3)cc2)c2c(N)nccn12 [Example 72, (S,E)-4-(8-amino-3-(1-(4-methoxybut-2-enoyl)piperidin-2-yl)imidazo[1,5-a]pyrazin-1-yl)-N-(pyridazin-3-yl)benzamide] | <1000 nM
